This passage reports Activity, inhibition and IC50 results from ChEMBL document CHEMBL4251622, “Design, synthesis, and biological evaluation of polo-like kinase 1/eukaryotic elongation factor 2 kinase (PLK1/EEF2K) dual inhibitors for regulating breast cancer cells apoptosis and autophagy” (Eur J Med Chem, 2018).

The source made the active and inactive calls. The rule behind the calls is not given here.

In assay [1] the target is Mitogen-activated protein kinase 14 (Homo sapiens) (UniProt Q16539). Description: Inhibition of wild-type human full length p38-alpha (M1 to S360 residues) expressed in bacterial expression system assessed as residual activity at 1 uM by Kinomescan method relative to control.
Assay [2] has as its target Aurora kinase A (Homo sapiens) (UniProt O14965). Kind of assay: Inhibition of wild-type human partial length AURKA (E122 to K401 residues) expressed in mammalian expression system assessed as residual activity at 1 uM by Kinomescan method relative to control.
Assay [3] deals with T1, Eukaryotic elongation factor 2 kinase (Homo sapiens) (UniProt O00418).
T1 sequence (whole entry): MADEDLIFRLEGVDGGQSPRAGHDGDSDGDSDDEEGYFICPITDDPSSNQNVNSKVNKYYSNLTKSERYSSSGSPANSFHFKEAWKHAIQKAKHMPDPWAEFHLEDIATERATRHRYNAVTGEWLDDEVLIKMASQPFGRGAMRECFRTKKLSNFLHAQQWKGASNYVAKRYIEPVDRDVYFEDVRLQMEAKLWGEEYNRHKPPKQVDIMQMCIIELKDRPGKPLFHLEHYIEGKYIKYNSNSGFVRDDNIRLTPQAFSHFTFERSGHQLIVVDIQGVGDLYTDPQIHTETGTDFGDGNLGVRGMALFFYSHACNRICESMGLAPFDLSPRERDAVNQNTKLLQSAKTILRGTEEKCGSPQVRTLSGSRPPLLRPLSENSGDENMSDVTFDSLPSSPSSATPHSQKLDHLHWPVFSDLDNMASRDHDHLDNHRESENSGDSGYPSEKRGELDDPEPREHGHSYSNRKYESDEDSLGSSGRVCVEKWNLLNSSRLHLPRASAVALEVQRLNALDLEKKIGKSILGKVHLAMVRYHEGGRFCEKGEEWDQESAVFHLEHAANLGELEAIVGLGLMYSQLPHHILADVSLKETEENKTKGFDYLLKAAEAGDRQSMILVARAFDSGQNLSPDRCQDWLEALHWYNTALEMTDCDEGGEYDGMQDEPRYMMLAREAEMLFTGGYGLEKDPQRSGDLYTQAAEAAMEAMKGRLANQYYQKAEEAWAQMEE
Description: Inhibition of EEF2K-meidated EEF2 phosphorylation in human BT-483 cells at 5 to 10 uM by Western blot analysis. The class given is cell-based. On the technique in general: Immunoblotting shows a protein as a band on a membrane.

Assay [4] concerns the target Receptor-type tyrosine-protein kinase FLT3 (Homo sapiens) (UniProt P36888). Kind of assay: Inhibition of wild-type human partial length FLT3 (V592 to Y969 residues) expressed in bacterial expression system assessed as residual activity at 1 uM by Kinomescan method relative to control.
Assay [5] deals with MAP kinase-interacting serine/threonine-protein kinase 2 (Homo sapiens) (UniProt Q9HBH9). Kind of assay: Inhibition of wild-type human partial length MKNK2 (G63 to S388 residues) expressed in mammalian expression system assessed as residual activity at 1 uM by Kinomescan method relative to control.
Assay [6] has as its system Tyrosine-protein kinase ABL1 (Homo sapiens), P00519 [T315I]. Description: Inhibition of human phosphorylated ABL1 T315I mutant (S229 to K512 residues) expressed in mammalian expression system assessed as residual activity at 1 uM by Kinomescan method relative to control.
In assay [7] the target is Mast/stem cell growth factor receptor Kit (Homo sapiens) (UniProt P10721). Description: Inhibition of wild-type human partial length KIT (I571 to D952 residues) expressed in bacterial expression system assessed as residual activity at 1 uM by Kinomescan method relative to control.
Assay [8] has as its target Tyrosine-protein kinase receptor UFO (Homo sapiens) (UniProt P30530). Kind of assay: Inhibition of wild-type human partial length AXL (R497 to Y821 residues) expressed in bacterial expression system assessed as residual activity at 1 uM by Kinomescan method relative to control.
Assay [9] concerns the target Proto-oncogene tyrosine-protein kinase receptor Ret (Homo sapiens) (UniProt P07949). Description: Inhibition of wild-type human partial length RET (E713 to D1014 residues) expressed in bacterial expression system assessed as residual activity at 1 uM by Kinomescan method relative to control.
Assay [10] concerns the target Eukaryotic elongation factor 2 kinase (Homo sapiens, UniProt O00418). Description: Inhibition of GST-tagged EEF2K (unknown origin) using biotinylated EEF2 peptide substrate by HTRF assay.
The target of assay [11] is RAF proto-oncogene serine/threonine-protein kinase (Homo sapiens) (UniProt P04049). Description: Inhibition of wild-type human partial length RAF1 (I330 to T640 residues) expressed in bacterial expression system assessed as residual activity at 1 uM by Kinomescan method relative to control.
The target of assay [12] is Insulin receptor (Homo sapiens) (UniProt P06213). Kind of assay: Inhibition of wild-type human partial length INSR (P997 to E1318 residues) expressed in mammalian expression system assessed as residual activity at 1 uM by Kinomescan method relative to control.
The subject of assay [13] is BT-483. Kind of assay: Cell cycle arrest in human BT-483 cells assessed as accumulation at sub-G1 phase at 5 to 10 uM after 24 to 72 hrs. The class given is functional, cell-based.
The target of assay [14] is Platelet-derived growth factor receptor alpha (Homo sapiens) (UniProt P16234). Kind of assay: Inhibition of wild-type human partial length PDGFRA (V575 to D1002 residues) expressed in mammalian expression system assessed as residual activity at 1 uM by Kinomescan method relative to control.
The target of assay [15] is Phosphatidylinositol 4,5-bisphosphate 3-kinase catalytic subunit alpha isoform (Homo sapiens) (UniProt P42336). Kind of assay: Inhibition of wild-type human partial length PIK3CA (R108 to N1068 residues) expressed in mammalian expression system assessed as residual activity at 1 uM by Kinomescan method relative to control.
The test system of assay [16] is BT-483. Kind of assay: Upregulation of cytochrome-c protein expression in human BT-483 cells at 5 to 10 uM by Western blot analysis. The format is functional, cell-based.
Assay [17] has as its target Focal adhesion kinase 1 (Homo sapiens) (UniProt Q05397). Description: Inhibition of wild-type human partial length FAK (D402 to R696 residues) expressed in bacterial expression system assessed as residual activity at 1 uM by Kinomescan method relative to control.
The target of assay [18] is Mitogen-activated protein kinase kinase kinase 7 (Homo sapiens) (UniProt O43318). Kind of assay: Inhibition of wild-type human partial length TAK1 (M1 to Q303 residues) expressed in mammalian expression system assessed as residual activity at 1 uM by Kinomescan method relative to control.
Assay [19] addresses Mitogen-activated protein kinase 8 (Homo sapiens) (UniProt P45983). Kind of assay: Inhibition of wild-type human full length JNK1 (M1 to Q384 residues) expressed in mammalian expression system assessed as residual activity at 1 uM by Kinomescan method relative to control.
For assay [20], the target named is Receptor tyrosine-protein kinase erbB-4 (Homo sapiens) (UniProt Q15303). Description: Inhibition of wild-type human partial length ERBB4 (L690 to K994 residues) expressed in bacterial expression system assessed as residual activity at 1 uM by Kinomescan method relative to control.
Assay [21] concerns the target Insulin-like growth factor 1 receptor (Homo sapiens) (UniProt P08069). Description: Inhibition of wild-type human partial length IGF1R (L972 to D1294 residues) expressed in bacterial expression system assessed as residual activity at 1 uM by Kinomescan method relative to control.

Aurora kinase A (Homo sapiens), sequence (O14965 whole entry, the tested form may be a part): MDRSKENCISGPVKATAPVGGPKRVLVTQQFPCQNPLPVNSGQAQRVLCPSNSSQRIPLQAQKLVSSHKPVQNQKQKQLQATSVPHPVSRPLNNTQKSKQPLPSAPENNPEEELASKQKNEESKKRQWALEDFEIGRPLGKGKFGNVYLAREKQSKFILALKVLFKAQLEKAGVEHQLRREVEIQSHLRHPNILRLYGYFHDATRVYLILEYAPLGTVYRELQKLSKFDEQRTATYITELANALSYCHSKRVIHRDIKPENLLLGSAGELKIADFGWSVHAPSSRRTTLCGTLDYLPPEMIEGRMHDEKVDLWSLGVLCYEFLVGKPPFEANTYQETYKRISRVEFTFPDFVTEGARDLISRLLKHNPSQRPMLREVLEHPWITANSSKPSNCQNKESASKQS
Insulin receptor (Homo sapiens), sequence (P06213 28-758 limits assumed): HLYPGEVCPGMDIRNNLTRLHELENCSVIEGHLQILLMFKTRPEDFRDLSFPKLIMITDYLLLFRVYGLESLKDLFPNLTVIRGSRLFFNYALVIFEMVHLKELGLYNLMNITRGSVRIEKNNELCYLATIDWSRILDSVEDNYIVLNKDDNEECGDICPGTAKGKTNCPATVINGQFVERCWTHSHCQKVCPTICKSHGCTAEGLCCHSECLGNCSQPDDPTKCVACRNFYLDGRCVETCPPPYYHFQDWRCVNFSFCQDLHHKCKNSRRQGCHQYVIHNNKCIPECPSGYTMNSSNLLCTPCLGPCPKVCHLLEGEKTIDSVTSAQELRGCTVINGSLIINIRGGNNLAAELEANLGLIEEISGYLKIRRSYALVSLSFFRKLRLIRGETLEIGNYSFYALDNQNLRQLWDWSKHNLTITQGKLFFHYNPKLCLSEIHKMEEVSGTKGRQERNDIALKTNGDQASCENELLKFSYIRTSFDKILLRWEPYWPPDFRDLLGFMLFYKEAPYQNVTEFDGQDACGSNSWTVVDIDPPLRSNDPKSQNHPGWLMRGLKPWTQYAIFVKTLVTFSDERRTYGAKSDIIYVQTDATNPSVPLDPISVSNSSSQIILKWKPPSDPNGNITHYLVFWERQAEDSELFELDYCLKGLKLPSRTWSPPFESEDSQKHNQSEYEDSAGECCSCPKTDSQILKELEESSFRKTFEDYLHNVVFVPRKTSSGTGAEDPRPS
Insulin receptor (Homo sapiens), sequence (P06213 763-1382 limits assumed): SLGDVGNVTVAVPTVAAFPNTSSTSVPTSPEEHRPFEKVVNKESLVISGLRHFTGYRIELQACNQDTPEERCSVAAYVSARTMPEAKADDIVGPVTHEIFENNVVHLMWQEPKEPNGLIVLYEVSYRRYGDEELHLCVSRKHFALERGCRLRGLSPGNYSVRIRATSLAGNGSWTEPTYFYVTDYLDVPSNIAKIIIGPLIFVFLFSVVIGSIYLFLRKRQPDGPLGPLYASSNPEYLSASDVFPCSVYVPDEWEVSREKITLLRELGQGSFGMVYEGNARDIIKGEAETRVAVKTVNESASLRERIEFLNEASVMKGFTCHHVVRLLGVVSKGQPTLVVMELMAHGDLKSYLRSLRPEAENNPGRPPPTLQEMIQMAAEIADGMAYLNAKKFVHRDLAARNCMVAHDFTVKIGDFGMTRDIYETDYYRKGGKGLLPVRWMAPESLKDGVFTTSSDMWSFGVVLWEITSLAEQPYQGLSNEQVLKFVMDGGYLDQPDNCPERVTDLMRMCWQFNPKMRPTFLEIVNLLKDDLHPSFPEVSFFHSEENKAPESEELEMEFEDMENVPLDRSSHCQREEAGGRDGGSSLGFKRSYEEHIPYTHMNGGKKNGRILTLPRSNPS
Receptor tyrosine-protein kinase erbB-4 (Homo sapiens), sequence (Q15303 whole entry, the tested form may be a part): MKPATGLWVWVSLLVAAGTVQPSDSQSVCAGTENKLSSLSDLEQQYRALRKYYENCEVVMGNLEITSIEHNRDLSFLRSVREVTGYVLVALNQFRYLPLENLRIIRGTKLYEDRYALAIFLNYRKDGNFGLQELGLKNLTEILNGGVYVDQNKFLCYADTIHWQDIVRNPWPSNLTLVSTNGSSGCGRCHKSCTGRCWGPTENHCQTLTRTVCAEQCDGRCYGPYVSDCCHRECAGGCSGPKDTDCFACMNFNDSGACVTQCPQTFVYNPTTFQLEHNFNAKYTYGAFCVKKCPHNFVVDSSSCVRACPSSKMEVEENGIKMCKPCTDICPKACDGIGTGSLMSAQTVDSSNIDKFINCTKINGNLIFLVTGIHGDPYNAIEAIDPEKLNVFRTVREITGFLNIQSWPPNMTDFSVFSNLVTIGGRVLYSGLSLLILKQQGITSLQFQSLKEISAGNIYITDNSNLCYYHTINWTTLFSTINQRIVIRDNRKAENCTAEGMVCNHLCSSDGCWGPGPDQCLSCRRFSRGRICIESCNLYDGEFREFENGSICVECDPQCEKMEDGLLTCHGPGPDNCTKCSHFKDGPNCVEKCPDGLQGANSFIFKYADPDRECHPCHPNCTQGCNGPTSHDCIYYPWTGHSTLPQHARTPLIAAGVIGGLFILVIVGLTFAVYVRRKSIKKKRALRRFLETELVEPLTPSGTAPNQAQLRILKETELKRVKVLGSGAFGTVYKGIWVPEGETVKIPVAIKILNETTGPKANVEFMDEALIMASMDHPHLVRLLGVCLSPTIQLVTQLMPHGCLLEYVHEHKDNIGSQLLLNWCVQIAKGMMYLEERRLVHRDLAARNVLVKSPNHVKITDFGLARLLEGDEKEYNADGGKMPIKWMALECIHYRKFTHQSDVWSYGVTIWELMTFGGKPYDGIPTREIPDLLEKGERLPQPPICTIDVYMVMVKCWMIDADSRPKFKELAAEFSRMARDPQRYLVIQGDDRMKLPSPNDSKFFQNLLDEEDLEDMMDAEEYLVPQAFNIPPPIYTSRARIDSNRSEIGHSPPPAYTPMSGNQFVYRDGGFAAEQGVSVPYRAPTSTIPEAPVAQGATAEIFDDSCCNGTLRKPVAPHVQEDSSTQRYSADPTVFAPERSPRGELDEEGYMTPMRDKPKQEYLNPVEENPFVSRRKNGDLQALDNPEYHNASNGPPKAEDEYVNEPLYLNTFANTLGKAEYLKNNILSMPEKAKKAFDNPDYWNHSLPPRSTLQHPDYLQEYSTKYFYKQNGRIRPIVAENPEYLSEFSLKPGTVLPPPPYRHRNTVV
Insulin-like growth factor 1 receptor (Homo sapiens), sequence (P08069 31-736 limits assumed): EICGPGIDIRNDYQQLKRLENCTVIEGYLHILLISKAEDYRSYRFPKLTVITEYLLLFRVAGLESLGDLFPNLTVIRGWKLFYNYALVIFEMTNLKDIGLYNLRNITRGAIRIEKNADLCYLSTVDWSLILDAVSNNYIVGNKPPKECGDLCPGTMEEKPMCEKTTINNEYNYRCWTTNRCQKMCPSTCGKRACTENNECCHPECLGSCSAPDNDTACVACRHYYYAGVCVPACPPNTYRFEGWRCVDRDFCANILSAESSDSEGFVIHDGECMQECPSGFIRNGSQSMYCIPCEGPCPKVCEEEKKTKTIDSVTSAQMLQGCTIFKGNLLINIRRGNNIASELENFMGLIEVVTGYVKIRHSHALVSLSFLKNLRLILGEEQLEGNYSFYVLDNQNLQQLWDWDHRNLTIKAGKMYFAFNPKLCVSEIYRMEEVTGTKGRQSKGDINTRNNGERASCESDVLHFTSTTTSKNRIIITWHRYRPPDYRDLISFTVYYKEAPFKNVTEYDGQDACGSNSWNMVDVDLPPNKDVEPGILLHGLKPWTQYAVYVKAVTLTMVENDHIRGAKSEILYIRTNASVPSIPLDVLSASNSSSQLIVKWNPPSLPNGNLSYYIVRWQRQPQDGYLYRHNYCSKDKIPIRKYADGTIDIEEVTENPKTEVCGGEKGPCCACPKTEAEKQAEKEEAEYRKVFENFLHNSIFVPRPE
Insulin-like growth factor 1 receptor (Homo sapiens), sequence (P08069 741-1367 limits assumed): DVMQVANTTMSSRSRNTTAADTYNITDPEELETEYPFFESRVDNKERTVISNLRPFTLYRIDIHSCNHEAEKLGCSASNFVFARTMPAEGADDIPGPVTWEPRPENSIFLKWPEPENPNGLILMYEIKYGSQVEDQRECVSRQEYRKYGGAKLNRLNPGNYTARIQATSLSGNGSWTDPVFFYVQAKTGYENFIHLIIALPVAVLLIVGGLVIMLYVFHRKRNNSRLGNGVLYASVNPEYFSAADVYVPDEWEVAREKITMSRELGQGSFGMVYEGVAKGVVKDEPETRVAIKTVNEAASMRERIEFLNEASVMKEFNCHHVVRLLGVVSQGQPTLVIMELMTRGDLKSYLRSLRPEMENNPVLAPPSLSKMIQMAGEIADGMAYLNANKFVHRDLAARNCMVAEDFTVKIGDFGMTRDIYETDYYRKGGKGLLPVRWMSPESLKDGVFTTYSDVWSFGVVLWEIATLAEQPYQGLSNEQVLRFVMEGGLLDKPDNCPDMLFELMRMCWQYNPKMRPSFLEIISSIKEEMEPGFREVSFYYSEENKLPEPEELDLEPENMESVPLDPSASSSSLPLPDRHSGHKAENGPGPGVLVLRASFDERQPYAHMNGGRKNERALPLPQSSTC
Mitogen-activated protein kinase 8 (Homo sapiens), sequence (P45983 whole entry, the tested form may be a part): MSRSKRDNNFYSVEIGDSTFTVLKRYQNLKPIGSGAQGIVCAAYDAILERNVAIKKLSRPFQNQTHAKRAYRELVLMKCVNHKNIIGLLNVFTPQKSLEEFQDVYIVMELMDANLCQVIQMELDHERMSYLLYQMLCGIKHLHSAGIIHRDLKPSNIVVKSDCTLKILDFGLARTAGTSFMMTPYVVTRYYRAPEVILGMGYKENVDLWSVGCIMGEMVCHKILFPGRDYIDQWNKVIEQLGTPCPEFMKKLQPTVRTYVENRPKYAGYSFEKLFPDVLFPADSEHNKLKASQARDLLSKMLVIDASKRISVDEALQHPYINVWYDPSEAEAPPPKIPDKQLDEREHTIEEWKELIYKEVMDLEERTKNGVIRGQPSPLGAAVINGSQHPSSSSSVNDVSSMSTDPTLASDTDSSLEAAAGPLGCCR

In the case of `CCNc1cc(-c2ccc(NC(=O)Nc3cccc(Cl)c3)cc2C(F)(F)F)ccn1`, the Activity came to 84% in assay [1]; 100% in assay [2]; 100% in [4]; 73% in [5]; 96% in assay [6]; 76% in assay [7]. Moreover, the Activity in [8] came to 99%; in assay [9] it was 64%; in [11], 64%; in [12], 87%; in assay [14] it was 79%; in [15], 69%. The Activity in [17] came to 76%; in assay [18], 76%; in assay [19] it was 75%; in assay [20], 92%; in [21] it was 78%. For the same molecule, the inhibition entry in [3] was “Active”. Moreover, the IC50 in assay [10] stood at 762 nM. In addition, the result in assay [13] and in assay [16] was Active.

For orientation: IC50 means the concentration that inhibits the measured activity by half. High values mean weaker potency in that assay, low ones greater potency in that assay.
